For 25 compounds, IC50 results are on record in patent US10457654B2 (GENENTECH, INC., priority 2017, dated 2019).

Broadly, the IC50 is the concentration needed to halve the response being measured.

Structures can show the parent of a compound that is named as a salt.

In assay [1] the target is T1, hNav1.7 (Homo sapiens (Human), UniProt Q15858). The assay can be described thus: Tritiated compound binding to membranes from cells expressing hNav1.7 and the β1 subunit, modified protocol (LBA, Ex. 243B). The settings on record: 300 pM [3H]compound, room temperature, read-out: Nav1.7 LBA (Ex. 243B) IC50.
Target sequence in this assay (Q15858 whole entry, looked up): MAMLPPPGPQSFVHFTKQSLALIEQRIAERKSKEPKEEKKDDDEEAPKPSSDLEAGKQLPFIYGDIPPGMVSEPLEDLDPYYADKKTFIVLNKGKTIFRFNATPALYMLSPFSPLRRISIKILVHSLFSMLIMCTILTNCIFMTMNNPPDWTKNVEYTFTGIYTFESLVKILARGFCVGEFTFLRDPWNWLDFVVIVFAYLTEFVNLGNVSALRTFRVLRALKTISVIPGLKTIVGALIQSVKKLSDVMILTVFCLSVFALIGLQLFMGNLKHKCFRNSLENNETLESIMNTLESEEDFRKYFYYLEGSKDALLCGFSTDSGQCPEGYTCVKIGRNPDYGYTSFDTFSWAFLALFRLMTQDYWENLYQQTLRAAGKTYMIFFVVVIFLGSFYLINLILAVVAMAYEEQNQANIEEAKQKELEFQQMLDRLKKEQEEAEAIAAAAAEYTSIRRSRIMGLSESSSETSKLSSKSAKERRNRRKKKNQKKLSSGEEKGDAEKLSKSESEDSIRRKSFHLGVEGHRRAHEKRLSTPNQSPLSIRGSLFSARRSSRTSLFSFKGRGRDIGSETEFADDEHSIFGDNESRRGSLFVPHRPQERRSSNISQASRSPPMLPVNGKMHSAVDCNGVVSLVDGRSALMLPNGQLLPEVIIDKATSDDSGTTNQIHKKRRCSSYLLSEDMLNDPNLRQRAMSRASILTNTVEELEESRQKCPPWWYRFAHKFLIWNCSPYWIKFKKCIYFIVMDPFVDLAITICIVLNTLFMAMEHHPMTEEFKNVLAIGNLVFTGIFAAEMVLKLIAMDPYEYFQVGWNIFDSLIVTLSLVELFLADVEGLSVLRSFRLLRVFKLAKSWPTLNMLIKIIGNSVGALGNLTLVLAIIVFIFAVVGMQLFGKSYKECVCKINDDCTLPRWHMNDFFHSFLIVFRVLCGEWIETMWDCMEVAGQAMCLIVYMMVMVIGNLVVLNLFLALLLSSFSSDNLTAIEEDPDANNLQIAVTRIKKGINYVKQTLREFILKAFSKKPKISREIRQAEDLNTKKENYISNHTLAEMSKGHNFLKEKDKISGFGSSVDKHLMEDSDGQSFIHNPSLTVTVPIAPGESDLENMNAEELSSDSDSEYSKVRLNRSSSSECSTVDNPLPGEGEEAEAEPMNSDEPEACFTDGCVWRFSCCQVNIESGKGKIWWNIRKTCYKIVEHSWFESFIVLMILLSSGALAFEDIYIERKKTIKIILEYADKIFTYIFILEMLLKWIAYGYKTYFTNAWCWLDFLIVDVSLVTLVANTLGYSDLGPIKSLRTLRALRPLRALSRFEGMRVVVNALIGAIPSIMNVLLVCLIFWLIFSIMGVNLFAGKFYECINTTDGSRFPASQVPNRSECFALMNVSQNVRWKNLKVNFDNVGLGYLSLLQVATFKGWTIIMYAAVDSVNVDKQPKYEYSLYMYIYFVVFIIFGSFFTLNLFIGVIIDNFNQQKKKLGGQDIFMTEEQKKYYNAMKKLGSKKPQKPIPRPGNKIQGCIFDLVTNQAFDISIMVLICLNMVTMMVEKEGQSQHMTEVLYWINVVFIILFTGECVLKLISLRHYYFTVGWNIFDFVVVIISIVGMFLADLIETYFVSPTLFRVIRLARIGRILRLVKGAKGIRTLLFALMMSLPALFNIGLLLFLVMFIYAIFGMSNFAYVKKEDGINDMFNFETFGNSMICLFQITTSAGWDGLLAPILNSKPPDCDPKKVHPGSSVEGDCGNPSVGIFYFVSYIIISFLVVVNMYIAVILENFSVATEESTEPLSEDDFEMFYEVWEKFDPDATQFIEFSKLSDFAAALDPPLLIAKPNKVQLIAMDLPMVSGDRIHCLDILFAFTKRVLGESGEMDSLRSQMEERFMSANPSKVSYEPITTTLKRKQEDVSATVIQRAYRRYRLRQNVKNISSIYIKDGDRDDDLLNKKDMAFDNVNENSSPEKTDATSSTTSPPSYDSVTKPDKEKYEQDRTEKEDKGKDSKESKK
Target sequence in this assay (Q07699 whole entry partner, looked up): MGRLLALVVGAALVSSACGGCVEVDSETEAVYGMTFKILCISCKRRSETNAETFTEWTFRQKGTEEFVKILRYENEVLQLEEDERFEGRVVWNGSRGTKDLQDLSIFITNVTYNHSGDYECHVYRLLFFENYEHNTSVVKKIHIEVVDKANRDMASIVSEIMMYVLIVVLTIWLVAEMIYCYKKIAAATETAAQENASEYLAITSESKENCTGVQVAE
Assay [2] deals with T1, hNav1.7. The assay is described as follows: Patch voltage clamp electrophysiology assay (EP), Syncropatch 384PE, CHO cells expressing Nav1.7. It is filed as cell-based. To be noted: holding potential -50 mV; […] compound incubation; read-out: EP_SP hNav1.7 (Ex. 243B) IC50. In outline: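 Automated whole-cell patch clamp on CHO cells stably expressing human Nav1.7, CsCl/EGTA internal and NMDG/80 mM Na+ external (pH 7.4). From −50 mV holding, −10 mV step, 20 ms recovery at −150 mV, then second −10 mV pulse where block is measured; inhibition after 7.5 min compound incubation.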
Target sequence in this assay (Q15858 other isoform, or with tags, fused parts or gaps): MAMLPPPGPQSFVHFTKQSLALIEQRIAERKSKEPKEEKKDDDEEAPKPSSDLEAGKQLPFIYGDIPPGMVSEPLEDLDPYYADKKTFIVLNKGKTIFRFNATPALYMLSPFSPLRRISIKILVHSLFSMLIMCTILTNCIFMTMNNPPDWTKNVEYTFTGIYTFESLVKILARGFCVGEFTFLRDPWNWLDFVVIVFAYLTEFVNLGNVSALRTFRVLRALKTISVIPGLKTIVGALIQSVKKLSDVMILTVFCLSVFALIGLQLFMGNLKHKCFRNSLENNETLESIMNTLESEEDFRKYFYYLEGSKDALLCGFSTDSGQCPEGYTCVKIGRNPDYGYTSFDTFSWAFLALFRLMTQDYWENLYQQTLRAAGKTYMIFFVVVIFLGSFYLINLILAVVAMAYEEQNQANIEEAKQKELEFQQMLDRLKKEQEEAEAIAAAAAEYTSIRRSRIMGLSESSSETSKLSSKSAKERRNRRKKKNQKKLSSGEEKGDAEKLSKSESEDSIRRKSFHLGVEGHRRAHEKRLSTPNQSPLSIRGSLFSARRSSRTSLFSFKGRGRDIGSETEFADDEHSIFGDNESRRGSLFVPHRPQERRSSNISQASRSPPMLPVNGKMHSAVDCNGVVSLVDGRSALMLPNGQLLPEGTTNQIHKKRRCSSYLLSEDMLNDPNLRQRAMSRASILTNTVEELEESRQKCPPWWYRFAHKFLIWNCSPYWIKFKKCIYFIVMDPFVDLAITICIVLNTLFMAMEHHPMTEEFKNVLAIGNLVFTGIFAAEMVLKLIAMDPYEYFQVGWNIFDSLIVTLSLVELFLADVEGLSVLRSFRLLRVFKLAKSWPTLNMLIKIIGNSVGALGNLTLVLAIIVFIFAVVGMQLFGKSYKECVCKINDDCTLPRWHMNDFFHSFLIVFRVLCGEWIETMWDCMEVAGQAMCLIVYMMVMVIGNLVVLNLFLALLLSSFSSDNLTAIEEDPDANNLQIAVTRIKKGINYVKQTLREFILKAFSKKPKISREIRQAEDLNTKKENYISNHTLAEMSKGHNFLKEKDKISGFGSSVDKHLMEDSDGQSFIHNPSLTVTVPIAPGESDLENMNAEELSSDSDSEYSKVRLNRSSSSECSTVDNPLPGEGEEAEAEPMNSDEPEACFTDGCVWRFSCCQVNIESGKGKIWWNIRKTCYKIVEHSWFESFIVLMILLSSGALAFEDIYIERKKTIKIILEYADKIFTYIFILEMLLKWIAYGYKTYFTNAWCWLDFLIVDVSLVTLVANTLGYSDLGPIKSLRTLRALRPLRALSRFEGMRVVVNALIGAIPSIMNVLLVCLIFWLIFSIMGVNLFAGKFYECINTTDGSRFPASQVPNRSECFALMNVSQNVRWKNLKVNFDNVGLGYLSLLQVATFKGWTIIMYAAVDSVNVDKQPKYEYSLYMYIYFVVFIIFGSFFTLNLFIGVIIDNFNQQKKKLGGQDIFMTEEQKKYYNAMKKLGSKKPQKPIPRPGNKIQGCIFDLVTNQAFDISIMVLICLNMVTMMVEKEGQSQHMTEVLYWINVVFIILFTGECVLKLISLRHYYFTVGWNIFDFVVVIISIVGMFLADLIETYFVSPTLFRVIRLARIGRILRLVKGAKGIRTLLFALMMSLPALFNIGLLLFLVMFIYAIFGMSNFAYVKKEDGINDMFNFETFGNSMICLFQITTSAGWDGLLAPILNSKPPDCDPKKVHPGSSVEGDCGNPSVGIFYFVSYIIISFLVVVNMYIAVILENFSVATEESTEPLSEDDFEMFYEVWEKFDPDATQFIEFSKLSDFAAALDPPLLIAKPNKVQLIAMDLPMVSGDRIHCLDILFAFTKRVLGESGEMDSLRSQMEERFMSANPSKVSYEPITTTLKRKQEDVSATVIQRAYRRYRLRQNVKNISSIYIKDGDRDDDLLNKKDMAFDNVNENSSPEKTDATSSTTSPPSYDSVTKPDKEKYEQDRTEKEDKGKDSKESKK
For orientation: The patch-clamp technique gives a direct electrical read-out from membranes.

For `N#CC1CCN([C@H]2CCCC[C@@H]2Nc2cc(F)c(S(=O)(=O)Nc3nccs3)cc2Cl)CC1` [Example 149, 5-Chloro-4-(((1S,2S)-2-(4-cyanopiperidin-1-yl)cyclohexyl)amino)-2-fluoro-N-(thiazol-2-yl)benzenesulfonamide formate], the results for the 50% inhibitory concentration (IC50) in assay [1] and in assay [2] were 520 nM and 12.5 nM, respectively.
For `CN(C)[C@H]1CC(F)(F)CC[C@@H]1Nc1cc(F)c(S(=O)(=O)Nc2nccs2)cc1Cl` [Example 187, 5-chloro-4-(((1S,2S)-2-(dimethylamino)-4,4-difluorocyclohexyl)amino)-2-fluoro-N-(thiazol-2-yl)benzenesulfonamide formate], in that order: 776 nM and 7.65 nM.
For the compound `CCCc1cccc([C@H]2CC[C@H](Nc3cc(F)c(S(=O)(=O)Nc4ccncn4)cc3Cl)[C@@H](N(C)C)C2)c1` [Example 223, 5-Chloro-4-(((1S,2S,4S)-2-(dimethylamino)-4-(3-propylphenyl)cyclohexyl)amino)-2-fluoro-N-(pyrimidin-4-yl)benzenesulfonamide], the half-maximal inhibitory concentration (IC50) in assay [1] came to 9.73 nM; in assay [2] it was 1.45 nM.
For the compound `CN(C)[C@H]1C[C@H](F)CC[C@@H]1Nc1cc(F)c(S(=O)(=O)Nc2nccs2)cc1Cl` [Example 193, 5-chloro-4-(((1S,2S,4R)-2-(dimethylamino)-4-fluorocyclohexyl)amino)-2-fluoro-N-(thiazol-2-yl)benzenesulfonamide], the IC50 amounted to 911 nM in assay [1] and 39.4 nM in assay [2].
As to `CN(C)[C@H]1CCC(F)C[C@@H]1Nc1cc(F)c(S(=O)(=O)Nc2nccs2)cc1Cl` (stereo partly drawn) [Example 191, 5-chloro-4-(((1S,2S)-2-(dimethylamino)-5-fluorocyclohexyl)amino)-2-fluoro-N-(thiazol-2-yl)benzenesulfonamide formate], the 50% inhibitory concentration (IC50) was determined as 777 nM in assay [1] and 39.4 nM in assay [2].
Consider `CN(CCC#N)[C@H]1CCCC[C@@H]1Nc1cc(F)c(S(=O)(=O)Nc2nccs2)cc1Cl` [Example 125, 5-Chloro-4-(((1S,2S)-2-((2-cyanoethyl)(methyl)amino)cyclohexyl)amino)-2-fluoro-N-(thiazol-2-yl)benzenesulfonamide], for which the values for the half-inhibitory concentration (IC50) in assay [1] and in assay [2] were 204 nM and 7.53 nM, respectively.
The corresponding values for `CN(C)[C@@H]1C[C@@H]2[C@H](C[C@H]1Nc1cc(F)c(S(=O)(=O)Nc3nccs3)cc1Cl)C2(Cl)Cl` [Example 195, 5-Chloro-4-(((1S,3R,4R,6R)-7,7-dichloro-4-(dimethylamino)bicyclo[4.1.0]heptan-3-yl)amino)-2-fluoro-N-(thiazol-2-yl)benzenesulfonamide formate] are 8.11 nM and 1.4 nM.
With `CN(C)[C@H]1Cc2ccccc2C[C@@H]1Nc1cc(F)c(S(=O)(=O)Nc2nccs2)cc1Cl` [Example 165, 5-Chloro-4-(((2S,3S)-3-(dimethylamino)-1,2,3,4-tetrahydronaphthalen-2-yl)amino)-2-fluoro-N-(thiazol-2-yl)benzenesulfonamide], the IC50 was determined as 2000 nM in assay [1] and 511 nM in assay [2].
`O=S(=O)(Nc1nccs1)c1cc(Cl)c(N[C@H]2CCCC[C@@H]2N2CCCC2CO)cc1F` (stereo in doubt) [Example 133, 5-chloro-2-fluoro-4-(((1S,2S)-2-((S)-2-(hydroxymethyl)pyrrolidin-1-yl)cyclohexyl)amino)-N-(thiazol-2-yl)benzenesulfonamide]: the IC50 in assay [1] amounted to 20.8 nM; in assay [2], 3.2 nM.
Consider `CN([C@H]1C[C@@H](O)C1)[C@H]1CCCC[C@@H]1Nc1cc(F)c(S(=O)(=O)Nc2nccs2)cc1Cl` [Example 156, 5-Chloro-2-fluoro-4-(((1S,2S)-2-((cis-3-hydroxycyclobutyl)(methyl)amino)cyclohexyl)amino)-N-(thiazol-2-yl)benzenesulfonamide formate], for which the 50% inhibitory concentration (IC50) in assay [1] worked out at 316 nM; in assay [2] it was 18.9 nM.
The corresponding values for `N#C[C@@H]1CCN([C@H]2CCCC[C@@H]2Nc2cc(F)c(S(=O)(=O)Nc3nccs3)cc2Cl)C1` [Example 161, 5-Chloro-4-(((1S,2S)-2-((R)-3-cyanopyrrolidin-1-yl)cyclohexyl)amino)-2-fluoro-N-(thiazol-2-yl)benzenesulfonamide formate] are 187 nM and 3.03 nM.
`CN(C)[C@H]1C[C@H](c2cccc(C(F)(F)F)c2)CC[C@@H]1Nc1cc(F)c(S(=O)(=O)Nc2ccon2)cc1Cl` [Example 229, 5-chloro-4-(((1S,2S,4R)-2-(dimethylamino)-4-(3-(trifluoromethyl)phenyl)cyclohexyl)amino)-2-fluoro-N-(isoxazol-3-yl)benzenesulfonamide]: the half-inhibitory concentration (IC50) in assay [1] amounted to 55 nM; in assay [2], 8.38 nM.
In the case of `CN([C@H]1C[C@H](O)C1)[C@H]1CCCC[C@@H]1Nc1cc(F)c(S(=O)(=O)Nc2nccs2)cc1Cl` [Example 157, 5-Chloro-2-fluoro-4-(((1S,2S)-2-((trans-3-hydroxycyclobutyl)(methyl)amino)cyclohexyl)amino)-N-(thiazol-2-yl)benzenesulfonamide formate], the half-maximal inhibitory concentration (IC50) in assay [1] was 337 nM; in assay [2] it was 24.1 nM.
For the compound `CN(C)[C@H]1C[C@@H]2[C@H](C[C@@H]1Nc1cc(F)c(S(=O)(=O)Nc3nccs3)cc1Cl)C2(Cl)Cl` [Example 194, 5-Chloro-4-(((1S,3S,4S,6R)-7,7-dichloro-4-(dimethylamino)bicyclo[4.1.0]heptan-3-yl)amino)-2-fluoro-N-(thiazol-2-yl)benzenesulfonamide formate], the figures for the IC50 in assay [1] and in assay [2] were 2000 nM and 400 nM, respectively.
In the case of `O=S(=O)(Nc1ccncn1)c1cc(Cl)c(N[C@H]2CCCC[C@@H]2N2CCCCC2)cc1F` [Example 108, 5-chloro-2-fluoro-4-(((1S,2S)-2-(piperidin-1-yl)cyclohexyl)amino)-N-(pyrimidin-4-yl)benzenesulfonamide], the values for the half-maximal inhibitory concentration (IC50) in assay [1] and in assay [2] were 166 nM and 22.6 nM, respectively.
As for `CN(C)[C@H]1C[C@@H](c2cccc(C(F)(F)F)c2)CC[C@@H]1Nc1cc(F)c(S(=O)(=O)Nc2ccncn2)cc1Cl` [Example 181, 5-chloro-4-[[(1S,2S,4S)-2-(dimethylamino)-4-[3-(trifluoromethyl)phenyl]cyclohexyl]amino]-2-fluoro-N-pyrimidin-4-yl-benzenesulfonamide], the values for the 50% inhibitory concentration (IC50) in assay [1] and in assay [2] were 1.31 nM and 0.783 nM, respectively.
For the compound `O=S(=O)(Nc1cccc(F)n1)c1cc(Cl)c(N[C@@H]2CCCC[C@H]2N2CC3CC3C2)cc1F` (stereo partly drawn) [Example 106, 4-(((1R,2R)-2-(3-azabicyclo[3.1.0]hexan-3-yl)cyclohexyl)amino)-5-chloro-2-fluoro-N-(6-fluoropyridin-2-yl)benzenesulfonamide], the figures for the IC50 in assay [1] and in assay [2] were 670 nM and 74.9 nM, respectively.
For `CN(C)[C@H]1CCC(c2ccccc2F)C[C@@H]1Nc1cc(F)c(S(=O)(=O)Nc2nccs2)cc1Cl` (stereo in doubt) [Example 174, 5-chloro-4-(((1S,2S,5S)-2-(dimethylamino)-5-(2-fluorophenyl)cyclohexyl)amino)-2-fluoro-N-(thiazol-2-yl)benzenesulfonamide], the IC50 in assay [1] came to 357 nM; in assay [2], 50.2 nM.
`CN(C)[C@@H]1Cc2ccccc2C[C@H]1Nc1cc(F)c(S(=O)(=O)Nc2nccs2)cc1Cl` [Example 164, 5-Chloro-4-(((2R,3R)-3-(dimethylamino)-1,2,3,4-tetrahydronaphthalen-2-yl)amino)-2-fluoro-N-(thiazol-2-yl)benzenesulfonamide]: the results for the IC50 in assay [1] and in assay [2] were 53.4 nM and 7.43 nM, respectively.
For `CC1(O)CCN([C@H]2CCCC[C@@H]2Nc2cc(F)c(S(=O)(=O)Nc3nccs3)cc2Cl)CC1` [Example 150, 5-chloro-2-fluoro-4-(((1S,2S)-2-(4-hydroxy-4-methylpiperidin-1-yl)cyclohexyl)amino)-N-(thiazol-2-yl)benzenesulfonamide formate], the IC50 in assay [1] amounted to 1410 nM; in assay [2], 103 nM.
The corresponding values for `COc1cc(S(=O)(=O)Nc2ccncn2)c(F)cc1N[C@H]1CC[C@H](c2cccc(C(F)(F)F)c2)C[C@@H]1N(C)C` [Example 241, 4-(((1S,2S,4S)-2-(Dimethylamino)-4-(3-(trifluoromethyl)phenyl)cyclohexyl)amino)-2-fluoro-5-methoxy-N-(pyrimidin-4-yl)benzenesulfonamide formate] are 3.73 nM and 1.48 nM.
In the case of `O=S(=O)(Nc1ccncn1)c1cc(Cl)c(N[C@@H]2CCCC[C@H]2N2CC3C(C2)C3(F)F)cc1F` (stereo partly drawn) [Example 182, 5-chloro-4-(((1R,2R)-2-(6,6-difluoro-3-azabicyclo[3.1.0]hexan-3-yl)cyclohexyl)amino)-2-fluoro-N-(pyrimidin-4-yl)benzenesulfonamide], the IC50 stood at 2000 nM in assay [1] and 1520 nM in assay [2].
Regarding `CN(C(=O)C(C)(C)N(C)C)[C@H]1CCCC[C@@H]1Nc1cc(F)c(S(=O)(=O)Nc2nccs2)cc1Cl` [Example 198, N-((1S,2S)-2-((2-Chloro-5-fluoro-4-(N-(thiazol-2-yl)sulfamoyl)phenyl)amino)-cyclohexyl)-2-(dimethylamino)-N,2-dimethylpropanamide], the half-maximal inhibitory concentration (IC50) in assay [1] is 817 nM; in assay [2], 65.8 nM.
`O=S(=O)(Nc1ccncn1)c1cc(Cl)c(N[C@@H]2CCCC[C@H]2N2CC3CC3C2)cc1F` (stereo partly drawn) [Example 152, 4-(((1R,2R)-2-(3-azabicyclo[3.1.0]hexan-3-yl)cyclohexyl)amino)-5-chloro-2-fluoro-N-(pyrimidin-4-yl)benzenesulfonamide]: the IC50 in assay [1] was determined as 2000 nM; in assay [2] it was 1680 nM.
With `CN(C)[C@H]1C[C@@H](F)CC[C@@H]1Nc1cc(F)c(S(=O)(=O)Nc2nccs2)cc1Cl` [Example 192, 5-chloro-4-(((1S,2S,4S)-2-(dimethylamino)-4-fluorocyclohexyl)amino)-2-fluoro-N-(thiazol-2-yl)benzenesulfonamide], the values for the IC50 in assay [1] and in assay [2] were 324 nM and 25.5 nM, respectively.
